Molecules are shown by their SMILES.

Assay [1] deals with T1, vitamin D receptor (Homo sapiens, UniProt P11473).
T1 sequence (P11473 1-427): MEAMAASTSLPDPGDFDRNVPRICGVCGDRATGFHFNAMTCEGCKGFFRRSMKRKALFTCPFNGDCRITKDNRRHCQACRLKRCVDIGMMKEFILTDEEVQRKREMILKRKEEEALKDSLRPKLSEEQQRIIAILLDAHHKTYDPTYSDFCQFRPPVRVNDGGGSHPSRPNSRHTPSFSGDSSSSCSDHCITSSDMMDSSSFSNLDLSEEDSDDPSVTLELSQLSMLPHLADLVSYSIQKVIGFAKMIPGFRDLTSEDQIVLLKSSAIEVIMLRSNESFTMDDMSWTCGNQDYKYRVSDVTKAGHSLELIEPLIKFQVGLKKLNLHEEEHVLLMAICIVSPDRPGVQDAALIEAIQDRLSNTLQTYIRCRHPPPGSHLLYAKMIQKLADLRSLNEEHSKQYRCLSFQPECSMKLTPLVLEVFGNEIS
The following applies: compared with 1α,25-dihydroxy-cholecalciferol; cited from earlier work.

The conditions of assay [2]: 50 micrograms equivalent to about 70 micrograms (2800 IU) of vitamin D3; cited from earlier work.

For the compound `NCCCC(O)(P(=O)(O)O)P(=O)(O)O` [alendronate, 4-Amino-1-hydroxybutylidene-1,1-bisphosphonic acid monosodium trihydrate], the “Progression of vertebral deformity” value (compared to placebo patients) is given as “statistically significant decrease”. Also, the “Decrease in the risk of vertebral fractures” value (compared to placebo, statistically significant, patients with fractures) is “at least 40%”. Further, where the note is “total number of vertebral fractures, compared to placebo”, the “Reduction in vertebral fracture rate per 100 patients” value is “at least 50%”.
Consider `C=C1CC[C@H](O)C/C1=C/C=C1\CCC[C@]2(C)[C@@H]([C@H](C)CCCC(C)(C)O)CC[C@@H]12` [25-hydroxy-cholecalciferol], for which the “Intrinsic activity relative to 1α,25-dihydroxy-cholecalciferol” value in assay [1] is given as “about 100 fold lower”. Also, the “Potency relative to vitamin D3” value in assay [2] is listed as “about 1.4 times”.

Source of the values: patent publication US20050176685A1 (priority 2002, published 2005).
